{"source": "patent US20260242395A1", "about": "“AMINOHETEROARYL KINASE INHIBITORS” (ALLORION THERAPEUTICS INC, priority 2022, published 2026)", "key": {"CDK4/CyclinD1": {"target": "T1, CDK4/CyclinD1 (Homo sapiens, UniProt P11802)", "T1 construct": "purchased ProQinase 0142-0143-1", "T1 sequence (P11802 whole entry)": "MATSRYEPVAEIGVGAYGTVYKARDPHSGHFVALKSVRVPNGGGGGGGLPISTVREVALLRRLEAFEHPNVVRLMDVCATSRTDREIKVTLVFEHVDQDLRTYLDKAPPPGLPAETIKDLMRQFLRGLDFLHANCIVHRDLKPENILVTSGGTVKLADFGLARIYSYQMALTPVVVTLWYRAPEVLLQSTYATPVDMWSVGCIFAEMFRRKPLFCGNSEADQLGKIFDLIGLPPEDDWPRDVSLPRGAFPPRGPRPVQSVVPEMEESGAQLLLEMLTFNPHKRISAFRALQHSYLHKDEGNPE", "T1 sequence (P24385 whole entry partner)": "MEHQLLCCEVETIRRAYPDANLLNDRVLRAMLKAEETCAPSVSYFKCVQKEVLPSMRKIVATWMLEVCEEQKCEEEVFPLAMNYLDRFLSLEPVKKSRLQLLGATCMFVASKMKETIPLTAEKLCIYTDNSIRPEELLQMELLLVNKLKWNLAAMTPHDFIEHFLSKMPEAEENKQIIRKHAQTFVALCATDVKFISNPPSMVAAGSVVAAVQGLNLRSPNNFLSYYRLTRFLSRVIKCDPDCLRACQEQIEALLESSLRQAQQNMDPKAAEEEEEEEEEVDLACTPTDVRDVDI", "assay": "CDK4/CyclinD1 kinase inhibitory activity (Caliper mobility shift)", "assay_type": "biochemical", "conditions": "enzyme 20 nM, ATP 672 uM, 28° C. 30 min; read-out: CDK4/Cyclin D1 IC50", "description": "CDK4/CyclinD1 kinase inhibitory activity (IC50): 5 μl of various dilutions of test compound in 1× kinase buffer (20 mM HEPES, pH 7.5, 10 mM MgCl2, 2 mM DTT and 0.01% Triton X-100) was mixed with 10 μL of either CDK4/Cyclin D1 (ProQinase, 0142-0143-1 #, final concentration 20 nM in 1× Kinase buffer) or in 384 plates and incubated at room temperature for 10 min. To initiate each reaction, 10 μL of peptide solution containing fluorescently-labeled-peptide 8(5-FAM-IPTSPITTTYFFFKKK-COOH, GL, 112396 #, final concentration 3000 nM) and ATP (final concentration 672 uM for CDK4/CyclinD1) in 1×Kinase buffer was added to each of the wells containing test compound and CDK4/CyclinD1 mixture. The reaction is then allowed to proceed at 28° C. for 30 min and terminated by the addition of 25 μL stop buffer (100 mM HEPES pH 7.5, 50 mM EDTA, 0.2% Coating Reagent #3 (Perkin Elmer, 760050 #) and 0.015% Brij-35).\n(§1) Following the kinase reaction, Caliper EZ reader II (Downstream voltages: −500V, Upstream voltages: −2250V, Base pressure −0.5 PSI, Screen pressure −1.2 PSI) was used to separate the phosphorylated (product) and the unphosphorylated (substrate) fluorescently-labeled peptide 8 based on their different mobility. Both substrate and product were measured and the ratio of these values were used to generate % conversion by Caliper EZ reader II. These conversion values were then transformed into % inhibition of kinase activity using the formula: % Inhibition=[(MA−X)/(MA−MI)]×100% where MA=conversion value of DMSO only controls, MI=conversion value of no enzyme controls and X=conversion value at any given compound dose. IC50 values were then calculated by plotting dose-response curves and then using the XLfit application in Excel software."}, "CDK6/CyclinD3": {"target": "T2, CDK6/CyclinD3 (Homo sapiens, UniProt Q00534)", "T2 construct": "purchased Carna 04-107", "T2 sequence (Q00534 whole entry)": "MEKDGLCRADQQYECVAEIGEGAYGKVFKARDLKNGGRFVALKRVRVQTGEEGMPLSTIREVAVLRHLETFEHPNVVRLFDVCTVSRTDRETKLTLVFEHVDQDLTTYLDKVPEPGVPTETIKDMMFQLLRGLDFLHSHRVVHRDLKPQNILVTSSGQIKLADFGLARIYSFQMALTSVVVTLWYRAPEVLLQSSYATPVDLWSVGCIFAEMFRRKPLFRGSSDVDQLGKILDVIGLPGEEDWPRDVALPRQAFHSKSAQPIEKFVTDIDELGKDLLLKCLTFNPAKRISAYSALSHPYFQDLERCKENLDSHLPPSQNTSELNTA", "T2 sequence (P30281 whole entry partner)": "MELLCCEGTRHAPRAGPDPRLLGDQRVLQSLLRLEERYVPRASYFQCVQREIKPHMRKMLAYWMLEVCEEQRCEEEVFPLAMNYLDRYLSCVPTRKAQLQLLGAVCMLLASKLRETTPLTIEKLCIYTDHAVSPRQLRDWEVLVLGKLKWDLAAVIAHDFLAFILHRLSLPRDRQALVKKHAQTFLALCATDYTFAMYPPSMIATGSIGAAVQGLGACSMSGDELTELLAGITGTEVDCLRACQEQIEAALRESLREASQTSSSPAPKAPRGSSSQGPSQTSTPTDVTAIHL", "assay": "CDK6/CyclinD3 kinase inhibitory activity (Caliper mobility shift)", "assay_type": "biochemical", "conditions": "enzyme 15 nM, ATP 800 μM, 28° C. 30 min; read-out: CDK6/Cyclin D3 IC50", "description": "CDK6/CyclinD3 kinase inhibitory activity (IC50): 5 μl of various dilutions of test compound in 1× kinase buffer (50 mM HEPES pH 7.5, 10 mM MgCl2, 2 mM DTT and 0.01% Brij-35) was mixed with 10 μL of CDK6/CyclinD3 (Carna, 04-107 #, final concentration 15 nM in 1× Kinase buffer) in 384 plates and incubated at room temperature for 10 min. To initiate each reaction, 10 μL of peptide solution containing fluorescently-labeled -peptide 8(5-FAM-IPTSPITTTYFFFKKK-COOH, GL, 112396 #, final concentration 3000 nM) and ATP (final concentration 800 μM for CDK6/CyclinD3 in 1× Kinase buffer was added to each of the wells containing test compound and CDK6/CyclinD3. The reaction is then allowed to proceed at 28° C. for 30 min and terminated by the addition of 25 μL stop buffer (100 mM HEPES pH 7.5, 50 mM EDTA, 0.2% Coating Reagent #3 (Perkin Elmer, 760050 #) and 0.015% Brij-35).\nas §1"}}}
{"smiles": "Cc1c(C(C)O)cnc2c(F)cc(-c3nc(N[C@@H]4CCOC[C@H]4O)ncc3Cl)cc12", "note": "(single isomer, unassigned) [Example 88b]", "values": [{"measurement": "IC50", "setting": "CDK4/CyclinD1", "result": "< 10", "unit": "nM"}, {"measurement": "IC50", "setting": "CDK6/CyclinD3", "result": "10 to 100", "unit": "nM"}]}
{"smiles": "[2H]C1([2H])NC(C)(C)Cc2cnc3c(F)cc(-c4nc(N[C@@H]5CCOC[C@H]5O)ncc4F)cc3c21", "note": "[Example 62, (3S,4R)-4-((5-fluoro-4-(7-fluoro-3,3-dimethyl-1,2,3,4-tetrahydrobenzo[c][2,6]naphthyridin-9-yl-1,1-d2)pyrimidin-2-yl)amino)tetrahydro-2H-pyran-3-ol]", "values": [{"measurement": "IC50", "setting": "CDK4/CyclinD1", "result": "< 10", "unit": "nM"}, {"measurement": "IC50", "setting": "CDK6/CyclinD3", "result": "10 to 100", "unit": "nM"}]}
{"smiles": "CC1(O)CCc2nc3c(F)cc(-c4nc(N[C@@H]5CCOC[C@H]5O)ncc4Cl)cc3cc21", "note": "(single isomer, unassigned) [Example 38b]", "values": [{"measurement": "IC50", "setting": "CDK4/CyclinD1", "result": "< 10", "unit": "nM"}, {"measurement": "IC50", "setting": "CDK6/CyclinD3", "result": "10 to 100", "unit": "nM"}]}
